How the values were obtained:
DHPS = DHPS enzyme activity in transgenic tubers (O-aminobenzaldehyde method); type: biochemical; conditions: transformed (mutant DHPS) versus control potato tubers
Description: Microtubers or mature tubers were homogenised with mortar and pestle in an equal volume of cold 100 mM Tris-HCl pH 7.5 containing 2 mM EDTA, 1.4% sodium ascorbate, 1 mM phenylmethylsulphonilfluoride and 0.5 Tg/ml leupeptin. Following 5 min. centrifugation (16,000 g at 4° C.) the supernatant is collected. DHPS activity was measured using the O-aminobenzaldehyde (O-ABA) method of Yugari and Gilvarg (Yugari, Y. and Gilvarg, C. (1965) J. Biol. Chem. 240: 4710-4716).

[1] = system: dihydrodipicolinate synthase (DHPS); conditions: cited from earlier work
E. coli DHPS = E. coli DHPS (Escherichia coli, UniProt P0A6L2); conditions: read-out: I50 of E. coli DHPS for lysine; cited from earlier work
E. coli DHPS, sequence (P0A6L2 whole entry): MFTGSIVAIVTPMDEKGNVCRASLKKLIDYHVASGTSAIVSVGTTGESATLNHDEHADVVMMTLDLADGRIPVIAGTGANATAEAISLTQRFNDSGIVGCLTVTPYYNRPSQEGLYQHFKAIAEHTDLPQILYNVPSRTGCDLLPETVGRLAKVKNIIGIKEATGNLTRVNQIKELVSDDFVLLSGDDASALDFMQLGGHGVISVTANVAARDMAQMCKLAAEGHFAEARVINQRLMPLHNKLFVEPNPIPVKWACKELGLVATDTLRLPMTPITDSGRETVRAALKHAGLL

SMILES	AEC sensitivity of DHPS activity (DHPS)	sensitivity of plant DHPS to lysine inhibition relative to E. coli DHPS ([1]; more sensitive than E. coli DHPS)	sensitivity of plant DHPS to lysine inhibition relative to plant lysine-sensitive AKs ([1]; more sensitive than plant lysine-sensitive AKs)	IC50 (E. coli DHPS) [mM]
NCCSC[C@H](N)C(=O)O [AEC, S-(2-aminoethyl)-L-cysteine]	reduced	–	–	–
NCCCC[C@H](N)C(=O)O [lysine]	–	about 100 fold	about 10 fold	~1

Reference: US20030061633A1, “Modified dhps genes” (priority 1999, published 2003)
